According to patent publication US20010044445A1, “AZOLE INHIBITORS OF CYTOKINE PRODUCTION” (priority 1999, published 2001):

How the values were obtained:
[1] = test system: Human peripheral blood mononuclear cells; assay: Human Concanavalin-A Proliferation Assay (Con HU Assay); format: cell-based; conditions: Homo sapiens, PBMC, concanavalin-A stimulated human PBMC; for inhibition at 1 µM / inhibition at 10 µM / inhibition at 100 µM: 72 h, 3 days, read-out: % Inhibition of proliferation (at concentrations of 1,10, or 100 μm); for inhibition at 1 µM: concentration 1 μm (in parentheses in the cell); for inhibition at 10 µM: concentration 10 μm (in parentheses in the cell); for IC50: tritiated thymidine; for inhibition at 100 µM: concentration 100 μm (in parentheses in the cell)
Procedure, shortened: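 Histopaque-isolated human PBMC (50,000/well) were pre-incubated 15 min with compounds, then stimulated with concanavalin-A at 2.5 μg/ml final for 3 days at 37 °C, 5% CO2. Proliferation measured by 6 h pulse with 0.5 μCi/well [3H]thymidine and beta counting.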

Question: For `O=C(Nc1ccc(-n2nc(C(F)(F)F)cc2C(F)(F)F)cc1)C1CC1` [Example 1, N-[4-[3,5-bis(trifluoromethyl)-1H-pyrazol-1-yl]phenyl]cyclopropanecarboxamide], which melting point is on record?
Answer: Its melting point is 204 to 205 °C.

Question: What about the inhibition at 1 µM [1] of the same compound?
Answer: The inhibition at 1 µM was 68%.

Question: For `CC1(C(=O)Nc2ccc(-n3nc(C(F)(F)F)cc3C(F)(F)F)cc2)CC1(Cl)Cl` (centres unmarked) [Example 3, N-[4-[3,5-bis(trifluoromethyl)-1H-pyrazol-1-yl]phenyl]-2,2-dichloro-1-methylcyclopropanecarboxamide], which melting point is on record?
Answer: The melting point was 143 to 145 °C.

Question: What about the inhibition at 10 µM [1] of the same compound?
Answer: The inhibition at 10 µM was 100%.

Question: And the IC50 [1]?
Answer: The IC50 was 328 nM.

Question: What does the source list for `CCCCCc1ccc(C(=O)Nc2ccc(-n3nc(C(F)(F)F)cc3C(F)(F)F)cc2)c(=O)o1` [Example 4, N-[4-[3,5-bis(trifluoromethyl)-1H-pyrazol-1-yl]phenyl]-2-oxo-6-pentyl-2H-pyran-3-carboxamide]?
Answer: melting point: 140 to 141 °C; inhibition at 100 µM [1]: 82%; IC50 [1]: 28800 nM

Question: For `CC1CC1C(=O)Nc1ccc(-n2nc(C(F)(F)F)cc2C(F)(F)F)cc1` (centres unmarked) [Example 7, N-[4-[3,5-bis(trifluoromethyl)-1H-pyrazol-1-yl]phenyl]-2-methylcyclopropanecarboxamide], which melting point is on record?
Answer: The melting point was 172 to 173 °C.

Question: What about the inhibition at 10 µM [1] of the same compound?
Answer: The inhibition at 10 µM was 97%.

Question: What about the IC50 [1] of the same compound?
Answer: Its IC50 is 403 nM.

Question: Which melting point does the source give for `CC1(C(=O)Nc2ccc(-n3nc(C(F)(F)F)cc3C(F)(F)F)cc2)C=CCCC1` (centres unmarked) [Example 9, N-[4-[3,5-bis(trifluoromethyl)-1H-pyrazol-1-yl]phenyl]-1-methyl-2-cyclohexene-1-carboxamide] here?
Answer: The melting point was 108 to 110 °C.

Question: And the inhibition at 1 µM [1]?
Answer: The inhibition at 1 µM was 35%.

Question: For `O=C(Nc1ccc(-n2nc(C(F)(F)F)cc2C(F)(F)F)cc1)C1=CCCC1` [Example 10, N-[4-[3,5-bis(trifluoromethyl)-1H-pyrazol-1-yl]phenyl]-1-cyclopentene-1-carboxamide], which melting point is on record?
Answer: Its melting point is 174 to 175 °C.

Question: What about the inhibition at 10 µM [1] of the same compound?
Answer: The inhibition at 10 µM was 100%.

Question: What about the IC50 [1] of the same compound?
Answer: The IC50 was 114 nM.

Question: For `COC1CCCC(C(=O)Nc2ccc(-n3nc(C(F)(F)F)cc3C(F)(F)F)cc2)C1` (centres unmarked) [Example 11, N-[4-[3,5-bis(trifluoromethyl)-1H-pyrazol-1-yl]phenyl]-3-methoxycyclohexanecarboxamide], which melting point is on record?
Answer: The melting point was 145 to 147 °C.

Question: And the inhibition at 10 µM [1]?
Answer: Its inhibition at 10 µM is 100%.

Question: And the IC50 [1]?
Answer: The IC50 was 376 nM.

Question: With `CC#CC(=O)Nc1ccc(-n2nc(C(F)(F)F)cc2C(F)(F)F)cc1` [Example 12, N-[4-[3,5-bis(trifluoromethyl)-1H-pyrazol-1-yl]phenyl]-2-butynamide] as the compound, how does the melting point read?
Answer: The melting point was 220 to 221 °C.

Question: What about the inhibition at 10 µM [1] of the same compound?
Answer: Its inhibition at 10 µM is 98%.

Question: What about the IC50 [1] of the same compound?
Answer: The IC50 was 427 nM.

Question: Which melting point does the source give for `CCOC(=O)c1cccc(NC(=O)Nc2ccc(-n3nc(C(F)(F)F)cc3C(F)(F)F)cc2)c1` [Example 13, ethyl 3-[[[[4-[3,5-bis(trifluoromethyl)-1H-pyrazol-1-yl]phenyl]amino]carbonyl]amino]-benzoate] here?
Answer: Its melting point is 211 to 212 °C.

Question: What about the inhibition at 100 µM [1] of the same compound?
Answer: Its inhibition at 100 µM is 99%.

Question: What about the IC50 [1] of the same compound?
Answer: Its IC50 is 2840 nM.

Question: Which melting point does the source give for `O=C(Nc1ccc(-n2nc(C(F)(F)F)cc2C(F)(F)F)cc1)c1ccoc1` [Example 14, N-[4-[3,5-bis(trifluoromethyl)-1H-pyrazol-1-yl]phenyl]-3-furancarboxamide] here?
Answer: The melting point was 206 to 207 °C.

Question: What about the inhibition at 100 µM [1] of the same compound?
Answer: The inhibition at 100 µM was 97%.

Question: What about the IC50 [1] of the same compound?
Answer: The IC50 was 538 nM.

Question: Which results are given for `Cc1c(C(=O)Nc2ccc(-n3nc(C(F)(F)F)cc3C(F)(F)F)cc2)cccc1[N+](=O)[O-]` [Example 15, N-[4-[3,5-bis(trifluoromethyl)-1H-pyrazol-1-yl]phenyl]-2-methyl-3-nitrobenzamide]?
Answer: melting point: 194 to 195 °C; inhibition at 100 µM [1]: 99%; IC50 [1]: 274 nM

Question: For `N#Cc1cccc(NC(=O)Nc2ccc(-n3nc(C(F)(F)F)cc3C(F)(F)F)cc2)c1` [Example 16, N-[4-[3,5-bis(trifluoromethyl)-1H-pyrazol-1-yl]phenyl]-N′-(3-cyanophenyl)urea], which melting point is on record?
Answer: The melting point was 204 to 205 °C.

Question: And the inhibition at 100 µM [1]?
Answer: Its inhibition at 100 µM is 100%.

Question: And the IC50 [1]?
Answer: The IC50 was 4190 nM.

Question: With `O=C(Nc1ccc(-n2nc(C(F)(F)F)cc2C(F)(F)F)cc1)C1(O)CC1` [Example 17, N-[4-[3,5-bis(trifluoromethyl)-1H-pyrazol-1-yl]phenyl]-1-hydroxycyclopropanecarboxamide] as the compound, how does the melting point read?
Answer: The melting point was 198 to 200 °C.

Question: What about the inhibition at 1 µM [1] of the same compound?
Answer: The inhibition at 1 µM was 18%.

Question: What does the source list for `O=C(Nc1ccc(-n2nc(C(F)(F)F)cc2C(F)(F)F)cc1)C1CCCCCC1` [Example 18, N-[4[3,5-bis(trifluoromethyl)-1H-pyrazol-1-yl]phenyl]cycloheptanecarboxamide]?
Answer: melting point: 174 to 175 °C; inhibition at 100 µM [1]: 100%; IC50 [1]: 374 nM

Question: With `O=C(Nc1ccc(-n2nc(C(F)(F)F)cc2C(F)(F)F)cc1)c1cc2ccccc2o1` [Example 19, N-[4-[3,5-bis(trifluoromethyl)-1H-pyrazol-1-yl]phenyl]-2-benzofurancarboxamide] as the compound, how does the melting point read?
Answer: Its melting point is 213 to 215 °C.

Question: And the inhibition at 1 µM [1]?
Answer: Its inhibition at 1 µM is 9%.

Question: Which melting point does the source give for `O=C(Nc1ccc(-n2nc(C(F)(F)F)cc2C(F)(F)F)cc1)c1cc2cc(F)ccc2[nH]1` [Example 20, N-[4-[3,5-bis(trifluoromethyl)-1H-pyrazol-1-yl]phenyl]-5-fluoro-1H-indole-2-carboxamide] here?
Answer: Its melting point is 253 to 255 °C.

Question: What about the inhibition at 1 µM [1] of the same compound?
Answer: Its inhibition at 1 µM is 10%.

Question: With `O=C(/C=C/c1ccccc1Cl)Nc1ccc(-n2nc(C(F)(F)F)cc2C(F)(F)F)cc1` [Example 21, (E)-N-[4-[3,5-bis(trifluoromethyl)-1H-pyrazol-1-yl]phenyl]-3-(2-chlorophenyl)-2-propenamide] as the compound, how does the melting point read?
Answer: The melting point was 173 to 175 °C.

Question: What about the inhibition at 1 µM [1] of the same compound?
Answer: Its inhibition at 1 µM is 2%.

Question: Which results are given for `O=C(Nc1ccc(-n2nc(C(F)(F)F)cc2C(F)(F)F)cc1)c1ccccc1C(=O)c1ccccc1` [Example 22, 2-Benzoyl-N-[4-[3,5-bis(trifluoromethyl)-1H-pyrazol-1-yl]phenyl]benzamide]?
Answer: melting point: 204 to 205 °C; inhibition at 1 µM [1]: 14%

Question: What does the source list for `O=C(Nc1ccc(-n2nc(C(F)(F)F)cc2C(F)(F)F)cc1)c1cccc(I)c1` [Example 25, N-[4-[3,5-bis(trifluoromethyl)-1H-pyrazol-1-yl]phenyl]-3-iodobenzamide]?
Answer: melting point: 192 to 193 °C; inhibition at 10 µM [1]: 100%; IC50 [1]: 396 nM

Question: Which melting point does the source give for `CCC(NC(=O)OCc1ccccc1)C(=O)Nc1ccc(-n2nc(C(F)(F)F)cc2C(F)(F)F)cc1` (centres unmarked) [Example 28, phenylmethyl [1-[[[4-[3,5-bis(trifluoromethyl)-1H-pyrazol-1-yl]phenyl]amino]carbonyl]propyl]carbamate] here?
Answer: The melting point was 158 to 160 °C.

Question: And the inhibition at 1 µM [1]?
Answer: The inhibition at 1 µM was 12%.

Question: With `O=C(Nc1ccc(-n2nc(C(F)(F)F)cc2C(F)(F)F)cc1)C1CC=CCC1` (centres unmarked) [Example 29, N-[4-[3,5-bis(trifluoromethyl)-1H-pyrazol-1-yl]phenyl]-3-cyclohexene-1-carboxamide] as the compound, how does the melting point read?
Answer: The melting point was 177 to 178 °C.

Question: What about the inhibition at 10 µM [1] of the same compound?
Answer: Its inhibition at 10 µM is 100%.

Question: And the IC50 [1]?
Answer: Its IC50 is 51 nM.

Question: With `O=C(Nc1ccc(F)cc1)c1ccc(-n2nc(C(F)(F)F)cc2C(F)(F)F)cc1` [Example 30, 4-[3,5-bis(trifluoromethyl)-1H-pyrazol-1-yl]-N-(4-fluorophenyl)benzamide] as the compound, how does the melting point read?
Answer: The melting point was 194 to 195 °C.

Question: And the inhibition at 1 µM [1]?
Answer: The inhibition at 1 µM was 6%.

Question: What does the source list for `O=C(Nc1ccc(-n2nc(C(F)(F)F)cc2C(F)(F)F)cc1)Nc1cccc([N+](=O)[O-])c1` [Example 31, N-[4-[3,5-bis(trifluoromethyl)-1H-pyrazol-1-yl]phenyl]-N′-(3-nitrophenyl)urea]?
Answer: melting point: 203 to 204 °C; inhibition at 100 µM [1]: 100%; IC50 [1]: 4040 nM

Question: With `O=C(Nc1ccc(F)cc1)Nc1ccc(-n2nc(C(F)(F)F)cc2C(F)(F)F)cc1` [Example 32, N-[4-[3,5-bis(trifluoromethyl)-1H-pyrazol-1-yl]phenyl]-N′-(4-fluorophenyl)urea] as the compound, how does the melting point read?
Answer: Its melting point is 201 to 202 °C.

Question: And the inhibition at 100 µM [1]?
Answer: The inhibition at 100 µM was 100%.

Question: And the IC50 [1]?
Answer: Its IC50 is 8440 nM.

Question: For `CC1(C(=O)Nc2ccc(-n3nc(C(F)(F)F)cc3C(F)(F)F)cc2)CC1` [Example 35, N-[4-[3,5-bis(trifluoromethyl)-1H-pyrazol-1-yl]phenyl]-1-methylcyclopropanecarboxamide], which melting point is on record?
Answer: Its melting point is 109 to 110 °C.

Question: And the inhibition at 1 µM [1]?
Answer: Its inhibition at 1 µM is 65%.

Question: Which melting point does the source give for `Cc1c(NC(=O)Nc2ccc(-n3nc(C(F)(F)F)cc3C(F)(F)F)cc2)cccc1[N+](=O)[O-]` [Example 40, N-[4-[3,5-bis(trifluoromethyl)-1H-pyrazol-1-yl]phenyl]-N′-(2-methyl-3-nitrophenyl)urea] here?
Answer: Its melting point is 235 to 236 °C.

Question: What about the inhibition at 1 µM [1] of the same compound?
Answer: The inhibition at 1 µM was 36%.

Question: For `O=C(Nc1ccc(-n2nc(C(F)(F)F)cc2C(F)(F)F)cc1)Nc1ccc([N+](=O)[O-])cc1Cl` [Example 41, N-[4-[3,5-bis(trifluoromethyl)-1H-pyrazol-1-yl]phenyl]-N′-(2-chloro-4-nitrophenyl)urea], which melting point is on record?
Answer: The melting point was 229 to 230 °C.

Question: And the inhibition at 10 µM [1]?
Answer: The inhibition at 10 µM was 100%.

Question: What about the IC50 [1] of the same compound?
Answer: Its IC50 is 343 nM.

Question: Which results are given for `CC(=O)c1ccc(NC(=O)Nc2ccc(-n3nc(C(F)(F)F)cc3C(F)(F)F)cc2)cc1` [Example 42, N-(4-acetylphenyl)-N′-[4-[3,5-bis(trifluoromethyl)-1H-pyrazol-1-yl]phenyl]urea]?
Answer: melting point: 230 to 231 °C; inhibition at 1 µM [1]: 9%

Question: Which melting point does the source give for `Cc1ccc(NC(=O)Nc2ccc(-n3nc(C(F)(F)F)cc3C(F)(F)F)cc2)c([N+](=O)[O-])c1` [Example 43, N-[4-[3,5-bis(trifluoromethyl)-1H-pyrazol-1-yl]phenyl]-N′-(4-methyl-2-nitrophenyl)urea] here?
Answer: Its melting point is 213 to 214 °C.

Question: And the inhibition at 10 µM [1]?
Answer: Its inhibition at 10 µM is 98%.

Question: What about the IC50 [1] of the same compound?
Answer: The IC50 was 354 nM.

Question: With `Cc1ccc(C(=O)Nc2ccc(-n3nc(C(F)(F)F)cc3C(F)(F)F)cc2)s1` [Example 44, N-[4-[3,5-bis(trifluoromethyl)-1H-pyrazol-1-yl]phenyl]-5-methyl-2-thiophenecarboxamide] as the compound, how does the melting point read?
Answer: Its melting point is 200 to 202 °C.

Question: And the inhibition at 1 µM [1]?
Answer: The inhibition at 1 µM was 29%.
